# Results reported in patent publication US7419780B2, “Methods and assays for screening protein targets” (The Trustees of Columbia University in the City of New York, priority 2000, dated 2008).
# How the values were obtained:
# Format in all cases: cell-based, S. cerevisiae
# Settings in all cases: 1 uM small molecule, difference to activity without small molecule, average of two trials
# [1] = biological target: T1, LexA eDHFR / B42 gly6rGR2 (UniProt P06536+P0ABQ4, C656G/F620S); assay: β-galactosidase activity assay, strain V375Y
# T1 construct: rat Glucocorticoid Receptor (aa 524-795) with point mutations; expressed in transfected cells; host or cells: S. cerevisiae FY250
# T1 sequence (P0ABQ4 1-159): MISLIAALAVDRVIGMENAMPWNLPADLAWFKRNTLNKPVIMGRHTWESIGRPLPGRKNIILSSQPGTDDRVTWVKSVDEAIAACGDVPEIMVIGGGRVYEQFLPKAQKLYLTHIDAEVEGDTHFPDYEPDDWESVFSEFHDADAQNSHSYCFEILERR
# T1 sequence (P06536 524-795 F620S/C656G limits assumed): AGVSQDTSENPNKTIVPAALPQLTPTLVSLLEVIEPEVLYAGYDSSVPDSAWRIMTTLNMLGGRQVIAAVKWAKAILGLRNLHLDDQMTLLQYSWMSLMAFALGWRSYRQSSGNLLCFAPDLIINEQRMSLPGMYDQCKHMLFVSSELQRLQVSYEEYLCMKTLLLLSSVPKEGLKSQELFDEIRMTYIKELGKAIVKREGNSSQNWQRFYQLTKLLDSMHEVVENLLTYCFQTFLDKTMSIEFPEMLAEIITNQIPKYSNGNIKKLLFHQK
# Description: (§1) Table III explains the components of each strain. Each strain was constructed from the parent yeast strain FY250 and also contains the pMW106 plasmid, which has the LacZ reporter gene that is turned on only in when the LexA DNA binding domain and the B42 activation are brought in tot he vicinity of each other. We use several different strains because we use DHFR from two different species, mDHFR is from murine, while eDHFR is from E. coli. We are asl oable to switch the small moleculebinding domains. For example, the strain containing LexA-eDHFR with B42-rGH2 is a different strain and behaves differently from the strain containing LexA-rGR2 with B42-eDHFR. We also put in short 6 amino acid linkers between the two domains of our protein chimeras and thus these are different strain as well.
# (§2) The results in Table IV are averages of two separate trials. Each strain was examined with small molecules and without small molecules. The absolute activity is given as the β-galactisidase activity […]. The average β-galactosidse activity for a strain without small molecule (i.e. the negative control) was about 100 β-galactosidase units.
# [2] = biological target: T2, LexA eDHFR / B42 (GSG)rGR2 (UniProt P06536+P0ABQ4, C656G/F620S); assay: β-galactosidase activity assay, strain V494Y
# T2 construct: rat Glucocorticoid Receptor (aa 524-795) with point mutations; expressed in transfected cells; host or cells: S. cerevisiae FY250
# T2 sequence (P0ABQ4 1-159): T1 sequence (P0ABQ4 1-159)
# T2 sequence (P06536 524-795 F620S/C656G limits assumed): T1 sequence (P06536 524-795 F620S/C656G limits assumed)
# Description: as §1, §2
# [3] = biological target: T3, LexA rGR2 / B42 (GSG)2eDHFR (UniProt P06536+P0ABQ4, C656G/F620S); assay: β-galactosidase activity assay, strain V509Y
# T3 construct: expressed in transfected cells; host or cells: S. cerevisiae FY250 with pMW106 lacZ reporter
# T3 sequence (P06536 524-795 F620S/C656G limits assumed): T1 sequence (P06536 524-795 F620S/C656G limits assumed)
# T3 sequence (P0ABQ4 1-159): T1 sequence (P0ABQ4 1-159)
# Description: as §1, §2
# [4] = biological target: T4, LexA (GSG)2rGR2 / B42 mDHFR (UniProt P00375+P06536, C656G/F620S); assay: β-galactosidase activity assay, strain V508Y
# T4 construct: expressed in transfected cells; host or cells: S. cerevisiae FY250 with pMW106 lacZ reporter
# T4 sequence (P06536 524-795 F620S/C656G limits assumed): T1 sequence (P06536 524-795 F620S/C656G limits assumed)
# T4 sequence (P00375 1-187): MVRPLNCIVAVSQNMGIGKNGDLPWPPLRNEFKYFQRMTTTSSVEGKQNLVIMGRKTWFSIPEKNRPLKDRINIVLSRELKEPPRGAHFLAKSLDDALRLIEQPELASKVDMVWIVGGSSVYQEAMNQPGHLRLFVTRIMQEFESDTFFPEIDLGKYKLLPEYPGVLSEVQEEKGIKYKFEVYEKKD
# Description: as §1, §2
# [5] = biological target: T5, LexA (GSG)2rGR2 / B42 eDHFR (UniProt P06536+P0ABQ4, C656G/F620S); assay: β-galactosidase activity assay, strain V506Y
# T5 construct: expressed in transfected cells; host or cells: S. cerevisiae FY250 with pMW106 lacZ reporter
# T5 sequence (P06536 524-795 F620S/C656G limits assumed): T1 sequence (P06536 524-795 F620S/C656G limits assumed)
# T5 sequence (P0ABQ4 1-159): T1 sequence (P0ABQ4 1-159)
# Description: as §1, §2
# [6] = biological target: T6, LexA (GSG)2mDHFR / B42 (GSG)rGR2 (UniProt P00375+P06536, C656G/F620S); assay: β-galactosidase activity assay, strain V504Y
# T6 construct: rat Glucocorticoid Receptor (aa 524-795) with point mutations; expressed in transfected cells; host or cells: S. cerevisiae FY250
# T6 sequence (P00375 1-187): T4 sequence (P00375 1-187)
# T6 sequence (P06536 524-795 F620S/C656G limits assumed): T1 sequence (P06536 524-795 F620S/C656G limits assumed)
# Description: as §1, §2
# [7] = biological target: T7, LexA (GSG)2eDHFR / B42 gly6rGR2 (UniProt P06536+P0ABQ4, C656G/F620S); assay: β-galactosidase activity assay, strain V499Y
# T7 construct: rat Glucocorticoid Receptor (aa 524-795) with point mutations; expressed in transfected cells; host or cells: S. cerevisiae FY250
# T7 sequence (P0ABQ4 1-159): T1 sequence (P0ABQ4 1-159)
# T7 sequence (P06536 524-795 F620S/C656G limits assumed): T1 sequence (P06536 524-795 F620S/C656G limits assumed)
# Description: as §1, §2
# [8] = biological target: T8, LexA mDHFR / B42 gly6rGR2 (UniProt P00375+P06536, C656G/F620S); assay: β-galactosidase activity assay, strain V496Y
# T8 construct: rat Glucocorticoid Receptor (aa 524-795) with point mutations; expressed in transfected cells; host or cells: S. cerevisiae FY250
# T8 sequence (P00375 1-187): T4 sequence (P00375 1-187)
# T8 sequence (P06536 524-795 F620S/C656G limits assumed): T1 sequence (P06536 524-795 F620S/C656G limits assumed)
# Description: as §1, §2
# [9] = biological target: T9, LexA (GSG)2rGR2 / B42 (GSG)2mDHFR (UniProt P00375+P06536, C656G/F620S); assay: β-galactosidase activity assay, strain V512Y
# T9 construct: rat Glucocorticoid Receptor (aa 524-795) with point mutations; expressed in transfected cells; host or cells: S. cerevisiae FY250
# T9 sequence (P06536 524-795 F620S/C656G limits assumed): T1 sequence (P06536 524-795 F620S/C656G limits assumed)
# T9 sequence (P00375 1-187): T4 sequence (P00375 1-187)
# Description: as §1, §2
# LexA rGR2 / B42 mDHFR = biological target: T10, LexA rGR2 / B42 mDHFR (UniProt P00375+P06536, C656G/F620S); assay: β-galactosidase activity assay, strain V507Y
# T10 construct: rat Glucocorticoid Receptor (aa 524-795) with point mutations; expressed in transfected cells; host or cells: S. cerevisiae FY250
# T10 sequence (P06536 524-795 F620S/C656G limits assumed): T1 sequence (P06536 524-795 F620S/C656G limits assumed)
# T10 sequence (P00375 1-187): T4 sequence (P00375 1-187)
# Description: as §1, §2
compound,measurement,setting,value
C[C@@H]1C[C@H]2C3CCC4=CC(=O)C=C[C@]4(C)[C@@]3(F)[C@@H](O)C[C@]2(C)[C@@]1(O)C(=O)NCCSCc1cccc(CSCC[C@H](NC(=O)c2ccc(N(C)Cc3cnc4nc(N)nc(N)c4n3)cc2)C(=O)O)c1 (stereo partly shown) [DM1],B-gal activity,[1],4978 β-galactosidase units
same,B-gal activity,[2],9976 β-galactosidase units
same,B-gal activity,[3],307 β-galactosidase units
same,B-gal activity,[4],0 β-galactosidase units
same,B-gal activity,[5],519 β-galactosidase units
same,B-gal activity,[6],12 β-galactosidase units
same,B-gal activity,[7],4368 β-galactosidase units
same,B-gal activity,[8],−30 β-galactosidase units
same,B-gal activity,[9],−1 β-galactosidase units
same,B-gal activity,LexA rGR2 / B42 mDHFR,−7 β-galactosidase units
